Values quoted from earlier work as cited in patent publication EP4729530A1, “NOVEL PEPTIDE AND USE THEREOF” (Gemvax & Kael Co., Ltd., priority 2023, dated 2024).

Tests used:
[1] = target: tau (Homo sapiens, UniProt P10636); conditions: read-out: tau aggregation inhibition range (EC50); cited from earlier work
[2] = read-out: cytotoxicity (GI50); cited from earlier work

Chain of tau (P10636 whole entry): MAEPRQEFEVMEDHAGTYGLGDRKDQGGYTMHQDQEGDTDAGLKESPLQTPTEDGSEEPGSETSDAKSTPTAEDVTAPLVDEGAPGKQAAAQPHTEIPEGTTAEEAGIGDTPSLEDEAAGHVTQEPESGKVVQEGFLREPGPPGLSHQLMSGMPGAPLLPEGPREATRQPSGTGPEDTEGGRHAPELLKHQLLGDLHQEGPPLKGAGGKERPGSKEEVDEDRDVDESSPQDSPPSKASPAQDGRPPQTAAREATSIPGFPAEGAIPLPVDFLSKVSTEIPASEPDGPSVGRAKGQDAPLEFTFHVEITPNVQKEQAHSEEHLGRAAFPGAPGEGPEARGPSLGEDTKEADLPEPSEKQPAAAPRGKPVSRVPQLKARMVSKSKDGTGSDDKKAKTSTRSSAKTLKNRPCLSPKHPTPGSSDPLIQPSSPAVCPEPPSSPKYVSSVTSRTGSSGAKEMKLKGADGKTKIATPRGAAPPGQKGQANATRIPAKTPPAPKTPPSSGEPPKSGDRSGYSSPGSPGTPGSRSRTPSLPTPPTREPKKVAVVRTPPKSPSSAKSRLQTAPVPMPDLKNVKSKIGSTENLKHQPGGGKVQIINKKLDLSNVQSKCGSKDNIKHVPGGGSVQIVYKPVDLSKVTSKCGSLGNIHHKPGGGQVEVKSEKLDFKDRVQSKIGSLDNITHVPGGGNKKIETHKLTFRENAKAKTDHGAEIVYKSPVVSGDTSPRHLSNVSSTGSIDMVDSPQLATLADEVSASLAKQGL

In the case of `CN(C)c1ccc2c(c1)Sc1cc(N(C)C)ccc1N2` [LMTM], the EC50 [1] is given as 2.2 ± 0.2 µM and the GI50 [2] is given as 6.4 ± 0.3 µM.
